Laboratory results taken from patent US11957716B2 (Immatics Biotechnologies GmbH, priority 2021, dated 2024).

Columns and labels:
HLA-A*03:01 = HLA-A*03:01 (Homo sapiens, UniProt P04439); experiment: MHC binding assay, UV-ligand exchange ELISA; details: peptide exchange yield, binding to HLA-A*03:01
From the text: Candidate peptides for T cell based therapies according to the present invention were further tested for their MHC binding capacity (affinity). The individual peptide-MHC complexes were produced by UV-ligand exchange, where a UV-sensitive peptide is cleaved upon UV-irradiation and exchanged with the peptide of interest as analyzed. Only peptide candidates that can effectively bind and stabilize the peptide-receptive MHC molecules prevent dissociation of the MHC complexes. To determine the yield of the exchange reaction, an ELISA was performed based on the detection of the light chain (β2m) of stabilized MHC complexes. The assay was performed as generally described in Rodenko et al. (Rodenko et al., 2006).
96 well MAXISorp plates (NUNC) were coated over night with 2 μg/ml streptavidin in PBS at room temperature, washed 4× and blocked for 1 h at 37° C. in 2% BSA containing blocking buffer. Refolded HLA-A*02:01/MLA-001 monomers served as standards, covering the range of 15-500 ng/ml. Peptide-MHC monomers of the UV-exchange reaction were diluted 100-fold in blocking buffer. Samples were incubated for 1 h at 37° C., washed four times, incubated with 2 μg/ml HRP conjugated anti-82m for 1 h at 37° C., washed again and detected with TMB solution that is stopped with […]. Absorption was measured at 450 nm. Candidate peptides that show a high exchange yield (preferably higher than 50%, most preferred higher than 75%) are generally preferred for a generation and production of antibodies or fragments thereof, and/or T cell receptors or fragments thereof, as they show sufficient avidity to the MHC molecules and prevent dissociation of the MHC complexes.

[1] = test system: HLA-A*01:01, HLA-A*02:01, HLA-A*03:01, HLA-A*24:02, HLA-B*07:02, HLA-B*08:01 and HLA-B*44:02; experiment: HLA alleles the peptides bind to (Table 7); format: binding, human; details: allotype from the group HLA-A*01:01, HLA-A*02:01, HLA-A*03:01, HLA-A*24:02, HLA-B*07:02, HLA-B*08:01, HLA-B*44:02
From the text: However, due to similarities in binding pattern such as the relevant anchoring positions some peptides bind to more than one allele, such an overlap is most likely, but not limited to, HLA-A*01 binding peptides also binding to HLA-B*15, HLA-A*03 binding peptides also binding to HLA-A*11, HLA-B*07 binding peptides also binding to HLA-B*35 and HLA-B*51.

Substance	Peptide exchange (HLA-A*03:01)	Binders (HLA alleles the peptides according to the invention bind to) [1]
1 (AILAPPAILK; listed as Homo sapiens) [compound 1]	++++ (≥75% = ++++)	HLA-A*03:01
2 (GTVFVLLSK; listed as Homo sapiens) [compound 2]	++ (≥20% = ++)	HLA-A*03:01
8 (VIYNQTLMK; listed as Homo sapiens) [compound 8]	++++ (≥75% = ++++)	HLA-A*03:01
17 (MVNWSLTNK; listed as Homo sapiens) [compound 17]	++++ (≥75% = ++++)	HLA-A*03:01
19 (RILEVVRQPK; listed as Homo sapiens) [compound 19]	++++ (≥75% = ++++)	HLA-A*03:01
20 (ILAPPAILK; listed as Homo sapiens) [compound 20]	++++ (≥75% = ++++)	HLA-A*03:01
21 (MLSAQFILK; listed as Homo sapiens) [compound 21]	++++ (≥75% = ++++)	HLA-A*03:01
22 (RVIEVVMNSK; listed as Homo sapiens) [compound 22]	++++ (≥75% = ++++)	HLA-A*03:01
24 (LIYIPTNSIYK; listed as Homo sapiens) [compound 24]	++++ (≥75% = ++++)	HLA-A*03:01
25 (GVCSTLTIK; listed as Homo sapiens) [compound 25]	++++ (≥75% = ++++)	HLA-A*03:01
28 (ATLQAVTLYKK; listed as Homo sapiens) [compound 28]	++++ (≥75% = ++++)	HLA-A*03:01
29 (GTFIAPVMK; listed as Homo sapiens) [compound 29]	++++ (≥75% = ++++)	HLA-A*03:01
34 (LLFKGLMWK; listed as Homo sapiens) [compound 34]	++++ (≥75% = ++++)	HLA-A*03:01
35 (SLATAISAK; listed as Homo sapiens) [compound 35]	+++ (≥50% = +++)	HLA-A*03:01
37 (RLYSGSSFLY; listed as Homo sapiens) [compound 37]	++++ (≥75% = ++++)	HLA-A*03:01
38 (AVVSHFILY; listed as Homo sapiens) [compound 38]	+++ (≥50% = +++)	HLA-A*03:01
44 (SLFPYFLNK; listed as Homo sapiens) [compound 44]	++++ (≥75% = ++++)	HLA-A*03:01
50 (KTIDLVIVR; listed as Homo sapiens) [compound 50]	++++ (≥75% = ++++)	HLA-A*03:01
51 (SVFSLVHLFDK; listed as Homo sapiens) [compound 51]	++++ (≥75% = ++++)	HLA-A*03:01
61 (GLIAFAIFK; listed as Homo sapiens) [compound 61]	–	HLA-A*03:01
79 (SLFRLSISF; listed as Homo sapiens) [compound 79]	–	HLA-A*24:02
119 (VLHGLLFTL; listed as Homo sapiens) [compound 119]	–	HLA-A*02:01
172 (LLYKTLIIL; listed as Homo sapiens) [compound 172]	–	HLA-A*02:01
176 (AFLLSLISL; listed as Homo sapiens) [compound 176]	–	HLA-A*24:02
197 (HHTQLVFVF; listed as Homo sapiens) [compound 197]	–	HLA-A*24:02
211 (VVTIVMHIYK; listed as Homo sapiens) [compound 211]	–	HLA-A*03:01

Continued, in another order:

Peptide exchange (HLA-A*03:01)	Substance	Binders (HLA alleles the peptides according to the invention bind to) [1]
+++ (≥50% = +++)	53 (TTLENLPQK; listed as Homo sapiens) [compound 53]	HLA-A*03:01
+++ (≥50% = +++)	70 (LIAGLIFLK; listed as Homo sapiens) [compound 70]	HLA-A*03:01
++++ (≥75% = ++++)	72 (GSCSFALSR; listed as Homo sapiens) [compound 72]	HLA-A*03:01
+++ (≥50% = +++)	75 (TTAAVYILK; listed as Homo sapiens) [compound 75]	HLA-A*03:01
+++ (≥50% = +++)	81 (KLIAGLIFLK; listed as Homo sapiens) [compound 81]	HLA-A*03:01
+++ (≥50% = +++)	88 (KVGAVVHLK; listed as Homo sapiens) [compound 88]	HLA-A*03:01
++ (≥20% = ++)	90 (LALLGAPPPK; listed as Homo sapiens) [compound 90]	HLA-A*03:01
+++ (≥50% = +++)	91 (RIVTYIVAK; listed as Homo sapiens) [compound 91]	HLA-A*03:01
++++ (≥75% = ++++)	94 (AVFLGNPSNQK; listed as Homo sapiens) [compound 94]	HLA-A*03:01
++++ (≥75% = ++++)	101 (ATNSFLLIK; listed as Homo sapiens) [compound 101]	HLA-A*03:01
+++ (≥50% = +++)	104 (GSLQTLPPK; listed as Homo sapiens) [compound 104]	HLA-A*03:01
++++ (≥75% = ++++)	107 (SVISVLTTPK; listed as Homo sapiens) [compound 107]	HLA-A*03:01
+++ (≥50% = +++)	112 (ETYGTFVLR; listed as Homo sapiens) [compound 112]	HLA-A*03:01
+++ (≥50% = +++)	125 (ALAQGANLK; listed as Homo sapiens) [compound 125]	HLA-A*03:01
+++ (≥50% = +++)	127 (TVATQVATSK; listed as Homo sapiens) [compound 127]	HLA-A*03:01
++++ (≥75% = ++++)	128 (MTFVPLLAR; listed as Homo sapiens) [compound 128]	HLA-A*03:01
+++ (≥50% = +++)	138 (RTLPLEGSPK; listed as Homo sapiens) [compound 138]	HLA-A*03:01
++++ (≥75% = ++++)	143 (AVLGALLRH; listed as Homo sapiens) [compound 143]	HLA-A*03:01
+++ (≥50% = +++)	144 (IIVPSFYK; listed as Homo sapiens) [compound 144]	HLA-A*03:01
+++ (≥50% = +++)	146 (KVLVDFLLK; listed as Homo sapiens) [compound 146]	HLA-A*03:01
++++ (≥75% = ++++)	148 (SVYMATTLK; listed as Homo sapiens) [compound 148]	HLA-A*03:01
+++ (≥50% = +++)	149 (SMNSKALRWK; listed as Homo sapiens) [compound 149]	HLA-A*03:01
